Results published in patent publication US20160120881A1, “USE OF BUFODIENOLIDES IN DIAGNOSING AND TREATING ESSENTIAL HYPERTENSION” (priority 2014, published 2016).

Columns and labels:
severe PPH in rats = details: cited from earlier work
[1] = two phase I human studies, dosages calculated to have beneficial effects on human PPH (Sidharta et al.); cited from earlier work
[2] = in vitro (Fedorova et al. 1997; Lopatin et al. 1999); cited from earlier work
[3] = tested on: volume expansion induced hypertensive rats; details: experimental animals, volume expansion-mediated hypertension (Danchuk et al. 2008); cited from earlier work
angiotensin-infused rats [4] = details: animals subjected to angiotensin excess (Danchuk et al. 2008); cited from earlier work
[5] = tested on: volume expansion induced hypertensive rats; experiment: Systolic blood pressure in volume expansion induced hypertensive rats (saline infusion, NDS); type: in vivo, rat; details: NDS rats given resibufogenin (NDSR) vs NDS; FIG. 1
Description: (§1) FIG. 1. Mean systolic blood pressure (BP) values in sham (SHM) animals, angiotensin-infused rats (ANG), angiotensin infused animals given resibufogenin (ANGR), normal rats rendered hypertensive by the infusion of saline (volume expansion induced hypertensive rats)(NDS), NDS rats given resibufogenin (NDSR).
(§2) This compound differs from MBG only in the absence of a hydroxyl group in the beta-5 position of the molecule. […] Current therapy of volume expansion hypertension involves the administration of a diuretic. RBG can be considered in place of the diuretic as the therapy of choice of volume expansion-mediated hypertension or can be utilized in combination with the diuretic so that smaller dosages of each agent could be utilized. The latter strategy can result in fewer side effects from either drug.

angiotensin-infused rats [6] = experiment: Systolic blood pressure in angiotensin-infused rats (ANG); type: in vivo, rat; details: angiotensin infused animals given resibufogenin (ANGR) vs ANG; FIG. 1
Description: as §1, §2

[7] = tested on: rodent brain contusion model; experiment: Rodent brain contusion model; type: in vivo; details: given 1 hour after the insult
Description: (§3) MBG is elevated in other syndromes such as preeclampsia and traumatic brain injury. It has been shown that the administration of the antagonist of MBG, resibufagenin (RBG) is therapeutically effective. […] RBG antagonizes MBG activity and may be an effective treatment for hypertension, ARDS, traumatic brain injury, and preeclampsia. Certain embodiments are directed to treating a hypertensive patient having elevated levels of MBG by administering an MBG antagonist or anti-MBG agent. In certain aspects the anti-MBG agent is resibufagenin (RBG).

[8] = tested on: preeclampsia in animal models; experiment: Preeclampsia animal models; type: in vivo
Description: as §3

Which Pulmonary arterial hypertension (severe PPH in rats; severe PPH (Kunita-Takanezawa et al. 2014)) does the source give for `CCCNS(=O)(=O)Nc1ncnc(OCCOc2ncc(Br)cn2)c1-c1ccc(Br)cc1` [macitentan] here?
Its Pulmonary arterial hypertension is “reversed severe pulmonary arterial hypertension”.

And the Adverse effects (severe PPH in rats; severe PPH)?
Its Adverse effects is “no adverse effects”.

And the Cardiac output (severe PPH in rats; severe PPH)?
The Cardiac output was “preserved cardiac output”.

What about the RV systolic pressure (severe PPH in rats; severe PPH) of the same compound?
Its RV systolic pressure is “lowered RV systolic pressure”.

What about the Right ventricular hypertrophy (severe PPH in rats; severe PPH) of the same compound?
Its Right ventricular hypertrophy is “reversed right ventricular hypertrophy”.

And the Adverse effects [1]?
The Adverse effects was “no adverse effects of the drug were noted”.

For `C[C@]12CC[C@H](O)C[C@@]1(O)CC[C@@H]1[C@@H]2CC[C@]2(C)[C@@H](c3ccc(=O)oc3)C[C@H]3O[C@]132` [marinobufagenin (MBG), marinobufagenin], which Vasoconstrictor action [2] is on record?
Its Vasoconstrictor action is “acts in vitro as a vasoconstrictor”.

For `C[C@]12CC[C@H](O)C[C@H]1CC[C@@H]1[C@@H]2CC[C@]2(C)[C@@H](c3ccc(=O)oc3)C[C@H]3O[C@]132` [resibufogenin, epoxy-3β-hydroxy-5β-bufa-20,22-dienolide], which Blood pressure elevation [3] is on record?
Its Blood pressure elevation is “resolves blood pressure elevations”.

What about the Elevated blood pressure (angiotensin-infused rats [4]) of the same compound?
Its Elevated blood pressure is “does not lower elevated blood pressure”.

And the “Mean systolic blood pressure (BP)” value [5]?
The value was “reduced blood pressure only in the volume expanded animals”.

And the “Mean systolic blood pressure (BP)” value (angiotensin-infused rats [6])?
The value was “only in the volume expanded animals”.

And the Tissue injury [7]?
Its Tissue injury is “amelioration of tissue injury”.

What about the Preeclampsia [8] of the same compound?
Its Preeclampsia is “prevents preeclampsia”.
